Experimental findings from patent US9580411B2, “Substituted sulfonamide compounds” (Hoffmann-La Roche Inc., priority 2012, dated 2017) are described below.

Chain of hTRPA1 (O75762 whole entry): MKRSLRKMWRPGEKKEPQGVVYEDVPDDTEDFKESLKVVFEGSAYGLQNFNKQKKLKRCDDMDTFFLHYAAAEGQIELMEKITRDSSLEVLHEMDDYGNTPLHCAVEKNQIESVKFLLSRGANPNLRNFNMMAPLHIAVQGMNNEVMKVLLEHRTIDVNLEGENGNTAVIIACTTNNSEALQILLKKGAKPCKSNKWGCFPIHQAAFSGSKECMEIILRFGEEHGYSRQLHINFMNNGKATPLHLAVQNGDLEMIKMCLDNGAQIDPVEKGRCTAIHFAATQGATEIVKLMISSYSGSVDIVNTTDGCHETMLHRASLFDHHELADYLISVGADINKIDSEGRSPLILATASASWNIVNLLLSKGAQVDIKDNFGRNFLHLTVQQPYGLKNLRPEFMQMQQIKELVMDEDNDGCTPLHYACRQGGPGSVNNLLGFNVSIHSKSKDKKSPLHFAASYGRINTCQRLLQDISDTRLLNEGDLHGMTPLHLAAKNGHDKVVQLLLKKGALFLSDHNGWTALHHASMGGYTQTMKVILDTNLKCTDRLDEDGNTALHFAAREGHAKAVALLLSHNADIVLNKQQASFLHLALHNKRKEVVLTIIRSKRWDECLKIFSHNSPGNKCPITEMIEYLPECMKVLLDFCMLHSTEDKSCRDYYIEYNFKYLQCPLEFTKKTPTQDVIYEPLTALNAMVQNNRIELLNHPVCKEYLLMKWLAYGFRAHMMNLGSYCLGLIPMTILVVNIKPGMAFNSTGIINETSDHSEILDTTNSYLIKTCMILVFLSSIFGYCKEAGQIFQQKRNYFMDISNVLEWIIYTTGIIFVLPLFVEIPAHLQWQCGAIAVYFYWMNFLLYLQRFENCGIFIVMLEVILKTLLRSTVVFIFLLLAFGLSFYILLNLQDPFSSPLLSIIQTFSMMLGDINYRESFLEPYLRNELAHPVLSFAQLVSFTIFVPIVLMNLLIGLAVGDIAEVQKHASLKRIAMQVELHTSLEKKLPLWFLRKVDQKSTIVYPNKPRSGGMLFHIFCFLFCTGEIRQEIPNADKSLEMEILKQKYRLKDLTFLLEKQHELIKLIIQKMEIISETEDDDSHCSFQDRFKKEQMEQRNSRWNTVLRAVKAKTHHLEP

The assay has as its target hTRPA1 (Homo sapiens (Human), UniProt O75762). Description: Dose response calcium flux assay (FLIPR), ChanTest hTRPA1-CHO stably transfected cell line. As to conditions: CHO-K1 Tet-On human TRPA1 cells, cinnamaldehyde agonist (final 100 uM). Format: cell-based. How it is done: IC50 Determinations of Exemplified Compounds Dose Response Assay: Chan Test hTRPA1-CHO Stably Transfected Cell Line
CHO-K1 Tet-On_HOMSA_TRPA1_Clone_20
Chinese Hamster Ovary cells, inducible expression
• Ham's F-12 with 10% tetracycline-free FBS • 1× penicillin-streptomycin • 1× glutamax • 0.01 mg/ml Blasticidin • 0.40 mg/ml Zeocin • The cell line doubling rate was ˜15 hours. […] Experiments were run at 24 hours post induction. Plating Conditions CHOK1/TRPA1 Cells: • Harvested cells with 0.025% trypsin/EDTA. • Resuspended cells in growth media without selection antibiotics. • Measured cell density and diluted to 2.4×10^5 cells/ml in media containing 1 ug/ml Doxycycline Plate 25 ul/well into 384 well black/clear tissue culture-treated plates. • Incubated overnight at 37° C. Calcium Flux Assay: Day of Assay: Reagents: • Replacement Buffer: Hank's Balanced Salt Solution, 20 mM HEPES along with 0.005% BSA and 2× Probenecid • Dye Loading Buffer: Cal-3 NW Calcium dye was prepared by dissolving the contents of one vial with […] Hank's Balanced Salt Solution containing 20 mM HEPES. • Control compounds for CHOK1/TRPA1 cells: AP-18, stock 10 mM, prepare 3.5× compound dilution in a Compound Buffer (HBSS/20 mM HEPES/0.005% BSA)—final concentration 10 uM. • Preparation of Cinnamaldehyde (agonist addition): FW=132.16 • Specific gravity=1.046 gm/cc • 1.32 gm/1.046 gm/cc=1.26 ml of stock • Add 1.74 ml DMSO=3.3 M stock • Working solution 4.5× (final 100 uM in Compound Buffer: HBSS/20 mM HEPES/0.005% BSA) • Compounds dilutions were prepared from 5 or 10 mM stock (100% DMSO): • Adjustments of volumes and concentrations were made at time of titration to reflect desired final assay concentrations. • Compounds were tested at either 20 μM three folds dilution 11 steps out or 30 μM two folds dilution 11 steps out. • 3 μl of diluted compound were transferred into Weidmann 384-well plate in duplicates side-by-side. • Compound plates were resuspended with 100 ul of HBSS/20 mM HEPES/0.005% BSA buffer (Compound Buffer): • column 1A-H: buffer/DMSO (bk) • column 2A-H: AP-18 (control antagonist for CHOK1 TRPA1 cells) • column 1I-P: ATP (control for CHOK1 teton cells) • column 2 I-P: 2APB (control antagonist for CHOK1/TRPM8 cells). Growth media was removed from the cell plates (20 ul) and 20 ul of the Replacement Buffer was added followed by addition of 25 ul of diluted dye. All three steps were performed using a Plate Washer BioTek 407. The plates were then incubated for 30′ at RT.
After incubation, both the cell and compound plates were brought to the FLIPR and 20 ul of the diluted compounds/antagonist/bk were transferred to the cell plates by the FLIPR. Plates were then incubated for 30′ at room temperature. After 30′ incubation, plates were returned to the FLIPR and 20 ul of 4.5× Cinnamaldehyde was added to the cell plates. During the compound addition as well as agonist addition, fluorescence readings were taken simultaneously from all 384 wells of the cell plate every 1.5 seconds. Five readings were taken to establish a stable baseline, then 20 ul of sample was rapidly (30 ul/sec) and simultaneously added to each well of the cell plate. The fluorescence was continuously monitored before, during and after sample/agonist addition for a total elapsed time of 100 seconds (compound addition) and 120 seconds (agonist addition). Responses (increase in peak fluorescence) in each well following agonist addition was determined. The initial fluorescence reading from each well, prior to ligand stimulation, was used a zero baseline value for the data from that well.
On the technique in general: Calcium flux is commonly read through the fluorescence of an indicator in the cells.
With `COc1ccc(CNC(=O)CN(C(C)C)S(=O)(=O)c2ccc(F)cc2)cc1-c1ccc(C(F)(F)F)cc1` [Example 47, 2-[(4-Fluoro-benzenesulfonyl)-isopropyl-amino]-N-(6-methoxy-4′-trifluoromethyl-biphenyl-3-ylmethyl)-acetamide], the half-inhibitory concentration (IC50) – broadly, the point on the concentration scale where inhibition reaches its midpoint – amounted to 41 nM.

Regarding `CC(C)N(CC(=O)NCc1cccc(-c2ccc(C(F)(F)F)cc2)c1)S(=O)(=O)c1cccc(F)c1` [Example 48, 2-[(3-Fluoro-benzenesulfonyl)-isopropyl-amino]-N-(4′-trifluoromethyl-biphenyl-3-ylmethyl)-acetamide], the half-maximal inhibitory concentration (IC50) came to 34 nM. Under `CC(C)N(CC(=O)NCc1cc(-c2ccc(C(F)(F)F)cc2)ncn1)S(=O)(=O)c1cccc(F)c1` [Example 49, 2-[(3-Fluoro-benzenesulfonyl)-isopropyl-amino]-N-[6-(4-trifluoromethyl-phenyl)-pyrimidin-4-ylmethyl]-acetamide] stands 70 nM; under `CC(C)N(CC(=O)NCc1cccc(-c2ccc(C(F)(F)F)cn2)c1)S(=O)(=O)c1cccc(F)c1` [Example 50, 2-[(3-Fluoro-benzenesulfonyl)-isopropyl-amino]-N-[3-(5-trifluoromethyl-pyridin-2-yl)-benzyl]-acetamide], 79 nM. As for `CN(C(CO)C(=O)NCc1cccc(-c2ccc(C(F)(F)F)cc2)c1)S(=O)(=O)c1ccc(F)cc1` (stereo not drawn) [Example 51, 2-[(4-Fluoro-benzenesulfonyl)-methyl-amino]-3-hydroxy-N-(4′-trifluoromethyl-biphenyl-3-ylmethyl)-propionamide], the 50% inhibitory concentration (IC50) turned out to be 130 nM. To `COC[C@@H](C(=O)NCc1cccc(-c2ccc(C(F)(F)F)cc2)c1)N(C)S(=O)(=O)c1ccc(F)cc1` [Example 52, (S)-2-[(4-Fluoro-benzenesulfonyl)-methyl-amino]-3-methoxy-N-(4′-trifluoromethyl-biphenyl-3-ylmethyl)-propionamide] belongs 98 nM; to `O=C(CN(CC1COC1)S(=O)(=O)c1ccc(F)cc1)NCc1cccc(-c2ccc(C(F)(F)F)cc2)c1` [Example 54, 2-[(4-Fluoro-benzenesulfonyl)-oxetan-3-ylmethyl-amino]-N-(4′-trifluoron-3-ylmethyl-amino]-N-(4′-trifluoromethyl-biphenyl-3-ylmethyl)-acetamide], 1760 nM.

With `CC(C)N(CC(=O)NCc1cc(-c2ccc(C(F)(F)F)nc2)ccn1)S(=O)(=O)c1ccc(F)cc1` [Example 55, 2-[(4-Fluoro-benzenesulfonyl)-isopropyl-amino]-N-(6-trifluoromethyl-[3,4′]bipyridinyl-2′-ylmethyl)-acetamide], the IC50 amounted to 130 nM.

Consider `CC(C)N(CC(=O)NCc1cc(-c2ccc(C(F)(F)F)cc2)ncn1)S(=O)(=O)c1cccnc1` [Example 56, 2-[Isopropyl-(pyridine-3-sulfonyl)-amino]-N-[6-(4-trifluoromethyl-phenyl)-pyrimidin-4-ylmethyl]-acetamide], for which the half-maximal inhibitory concentration (IC50) was determined as 550 nM. Under `CC(C)N(CC(=O)NCc1cncc(-c2ccc(C(F)(F)F)cc2)c1)S(=O)(=O)c1ccc(F)cc1` [Example 57, 2-[(4-Fluoro-benzenesulfonyl)-isopropyl-amino]-N-[5-(4-trifluoromethyl-phenyl)-pyridin-3-ylmethyl]-acetamide] stands 180 nM; under `CC(C)N(CC(=O)NCc1ccnc(-c2ccc(C(F)(F)F)nc2)c1)S(=O)(=O)c1ccc(F)cc1` [Example 58, 2-[(4-Fluoro-benzenesulfonyl)-isopropyl-amino]-N-(6′-trifluoromethyl-[2,3′]bipyridinyl-4-ylmethyl)-acetamide], 230 nM. Take `CC(C)N(CC(=O)NCc1ccnc(-c2ccc(C(F)(F)F)cc2)c1)S(=O)(=O)c1cccc(F)c1` [Example 59, 2-[(3-Fluoro-benzenesulfonyl)-isopropyl-amino]-N-[2-(4-trifluoromethyl-phenyl)-pyridin-4-ylmethyl]-acetamide]: the IC50 turned out to be 99 nM.
